According to article PMC7039890, “Aedes aegypti Odorant Binding Protein 22 selectively binds fatty acids through a conformational change in its C-terminal tail” (Scientific Reports, 2020):
Values joined by “and” are separate entries in the source; they are usually repeats but may differ in a detail not shown here. Equal entries are not always repeated. Where two headings read alike, the source gives them in different places.

Assays:
AeOBP22 [1] = biological target: T1, AeOBP22 (Aedes aegypti, UniProt Q1HRL7); test: 1-NPN fluorescent reporter binding; conditions: result in words
T1 construct: The mature form of AeOBP22 lacking the N-terminal signal peptide was expressed and purified as previously described; made in house
T1 sequence (Q1HRL7 17-138): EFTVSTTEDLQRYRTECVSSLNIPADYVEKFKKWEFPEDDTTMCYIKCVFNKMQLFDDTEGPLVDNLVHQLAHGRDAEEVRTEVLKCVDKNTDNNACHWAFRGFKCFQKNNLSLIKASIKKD

AeOBP22 [2] = biological target: T1, AeOBP22; test: NMR 1H-15N HSQC ligand screening / chemical shift perturbation; assay type: binding; conditions: protein 100 μM, sodium phosphate pH 6.5; for binding to AeOBP22 judged by NMR: result in words
Procedure: NMR experiments were performed at 25 °C on a either a Varian 900 MHz DD2, Varian INOVA 600 MHz or Bruker Avance Neo 600 MHz spectrometer. Samples for NMR were dissolved in sodium phosphate (20 mM, pH 6.5) and 90% H2O/10% D2O, with DSS (4,4-dimethyl-4-silapentane-1-sulfonic acid) (80 μM) added as an internal reference,[90]. For ligand screening, protein concentration was 100 μM and ligands were added to a concentration of 200–500 μM. For chemical shift assignments, relaxation rate measurements and structure calculations, protein concentrations were in the 400–700 μM range. All NMR experiments were collected using non uniform sampling methods[91] using the Poisson-gap sampling schemes implemented by Hyberts et al.[92] with a sampling density of 25–50%. Data were processed using the istHMS package v2111[93],[94] in combination with NmrPipe[95] and analyzed using Ccpnmr Analysis v 2.4.2[96].
Chemical shift assignments for the complex with arachidonic acid and the backbone assignments for the apo-protein were previously reported. Backbone ^1H, ^15N, ^13Cα and ^13Cβ assignments for nonadecanoic, linoleic acid (pH 4.5 and pH 6.5), and decanoic acids were made in the same way. All other backbone amide assignments were made by following chemical shift trajectories as a function of ligand concentration or chain length. Normalized chemical shift differences are reported as[97],[98]1 Δδ=(ΔδH^2+0.14∗ΔδN^2)

AeOBP22 [3] = biological target: T1, AeOBP22; test: DAF based competition binding assay (recovery of DAF fluorescence by fatty acids); conditions: for Kd: pH 8.0 (HEPES 50 mM pH 8.1), 25 °C, ± s.d., n = 3
Procedure: Binding affinities were determined by monitoring the recovery of DAF florescence as a function of fatty acid concentration. Stock solutions of fatty acid were made by dissolving the fatty acid in 100% DMSO, and then making a 1:1000 dilution into HEPES (50 mM pH 8.1). Samples were vortexed prior to each titration point. The protein/DAF solution contained fixed concentrations of DAF (100 nM) and AeOBP22 (1000 nM).
As there is a single binding site for the fatty acid and the effect of fluorescence quenching can be completely reversed by increasing concentrations of fatty acids, we concluded that the fatty acid is directly competitive with binding of the DAF reporter. Therefore, the term for KD in Eq. 2 can be replaced with Eq. 3.3 Kapp=KD(1+I/KI) where I is the concentration of the competitor and KI is the dissociation constant of the competitor. The emission maxima were fit using Eq. 2 substituted into Eq. 1, with the concentration of the protein and DAF fixed at their known concentrations.

AeOBP22 [4] = biological target: T1, AeOBP22; test: DAF fluorescence quenching titration with AeOBP22 (direct binding); conditions: for Kd: direct titration, fluorescence quenching at 513 nm, n = 7
Procedure: All fluorescence experiments were recorded at 25 °C on a Horiba Fluorolog 3–1–1 spectrofluorometer. DAF spectra were acquired using an excitation wavelength of 490 nm and the emission recorded between 500 and 560 nm at 1 nm intervals with an integration time of 1 s and slit widths of 2 nm. Stock solutions of DAF (Thermo Fisher, Batch D-109) were prepared in methanol with potassium hydroxide (0.2 M) and the concentration measured by UV spectroscopy using an extinction coefficient of 88000 M^−1 cm^−1 at 497 nm provided in the certificate of analysis. A 1:100 dilution was made into HEPES (50 mM, pH 8.1) and the sample vortexed and checked by UV to verify the DAF concentration. A solution of DAF (~80–100 nM) was titrated with increasing AeOBP22 to a final concentration of ~4 μM. The fluorescence intensity (cps) at the emission maxima (513 nm) was plotted against the total concentration of AeOBP22 and the KD for DAF was determined by fitting the raw fluorescence intensity for each replicate to Eq. (1):2 Fi=F0(1−([PT+LT+KD]−[PT+LT+KD]^2−4PTLT)/2LT)−Fmin where Fi is the measured fluorescence, F0 is the initial fluorescence in the absence of any protein, PT is the total protein, LT is the total concentration of DAF, and Fmin is the residual fluorescence after maximal quenching by the protein.

AeOBP22 [5] = biological target: T1, AeOBP22; test: DAF based competition binding assay (recovery of DAF fluorescence by fatty acids)
[6] = DAF competition, DAF 100 nM, protein 1000 nM, read-out: KD (nM) for binding of fatty acids to AeOBP22
[7] = KD (nM) for binding of fatty acids to AeOBP22, DAF competition, DAF 100 nM, protein 1000 nM
[8] = DAF competition, DAF 100 nM, protein 1000 nM, pH 8.0, n = 3, read-out: KI (dissociation constant of the competitor)

With c1ccc(Nc2cccc3ccccc23)cc1 [1-NPN] the “binding of 1-NPN reporter to AeOBP22” value (AeOBP22 [1]) was “bound with low affinity”.
For CCCCCCCC/C=C\CCCCCCCC(=O)OC[C@@H](O)COP(=O)(O)O [C16-LPA, lyso-phosphatidic acid], the “binding to AeOBP22 judged by NMR” value (AeOBP22 [2]) was “failed to identify”.
With O=C(O)CCCCCCCCCCCCCCCO [C16-OH, 16-hydroxy-hexadecanoic acid] the “competition for binding of the fluorescent reporter (DAF)” value (AeOBP22 [3]; result in words) was “does not compete”.
Compound CCCCCCCCCCCCCCCC(=O)O [C16:0, palmitic acid] has a Kd (AeOBP22 [3]; [6]) of 689 ± 89 nM.
Work on CCCCCC/C=C\CCCCCCCC(=O)O [C16:1, palmitoleic acid] yielded a Kd (AeOBP22 [3]; [6]) of 175 ± 41 nM.
In the case of CCCCCCCC/C=C\CCCCCCCC(=O)O [C18:1, Oleic acid], the Kd (AeOBP22 [3]; [6]) is reported as 85 nM and 84 nM.
Work on CCCCC/C=C\C/C=C\CCCCCCCC(=O)O [C18:2, linoleic acid] yielded a Ki (AeOBP22 [3]) of 104 ± 30 nM and a Kd (AeOBP22 [3]; [7]) of 104 ± 30 nM.
CCCCC/C=C\C/C=C\C/C=C\C/C=C\CCCC(=O)O [C20:4, arachidonic acid] was tested, and the Ki (AeOBP22 [3]) was 286 ± 29 nM, the Kd (AeOBP22 [3]; [7]) was 286 ± 29 nM and the “binding to AeOBP22 judged by NMR” value (AeOBP22 [2]) was “binding occurs with high affinity”.
With CCCCCCCCCCCC(=O)Nc1ccc2c(c1)C(=O)OC21c2ccc(O)cc2Oc2cc(O)ccc21 [DAF, 5-(N-dodecanoyl)-amino-fluorescein] the Kd (AeOBP22 [4]; HEPES pH 8.1, 25 °C, ± s.d., read-out: KD (nM) for binding of DAF to AeOBP22) was 1190 ± 261 nM, the Kd (AeOBP22 [4]; read-out: KD of DAF for AeOBP22) was 1190 nM and the “quenching of DAF fluorescence upon addition of AeOBP22 (reduction from maximal intensity)” value (AeOBP22 [4]; emission maximum 513 nm) was ~ 75%.
For O=Cc1ccccc1 [benzaldehyde], the “ligand concentration at which large NMR chemical shift changes occur” value (AeOBP22 [2]) was > 1 mM and the “binding to AeOBP22 judged by NMR” value (AeOBP22 [2]) was “binding is weak”.
For CC(C)=CCCC(C)CCO (centres unmarked) [citronellol], the “ligand concentration at which large NMR chemical shift changes occur” value (AeOBP22 [2]) was > 1 mM and the “binding to AeOBP22 judged by NMR” value (AeOBP22 [2]) was “binding is weak”.
In the case of CC(C)=CCC/C(C)=C/CO [geraniol], the “ligand concentration at which large NMR chemical shift changes occur” value (AeOBP22 [2]) is reported as > 1 mM and the “binding to AeOBP22 judged by NMR” value (AeOBP22 [2]) is reported as “binding is weak”.
CC/C=C\C/C=C\C/C=C\CCCCCCCC(=O)O [αC18:3, a-Linoleic acid C18:3 (D9,12,15)] showed a Ki (AeOBP22 [5]; pH 5, n = 2, read-out: KI (dissociation constant of the competitor) at pH 5) of 42 ± 14 nM, a Kd (AeOBP22 [5]; pH 5.0, ± s.d., n = 2, read-out: KD (nM) for binding of fatty acid to AeOBP22 at pH 5.0) of 42 ± 14 nM and a Kd (AeOBP22 [5]; pH 6.5 as printed, read-out: binding affinity at pH 6.5 (as printed in text)) of 52 ± 8 nM. For the same compound, the Kd (AeOBP22 [3]; [6]) was 52 ± 8 nM and the Ki (AeOBP22 [3]; [8]) was 52 ± 8 nM.
In the case of CCCCC/C=C\C/C=C\C/C=C\CCCCC(=O)O [γC18:3, g-Linoleic acid C18:3 (D6 ,9,12)], the Kd (AeOBP22 [3]; [6]) is reported as 111 ± 27 nM and the Ki (AeOBP22 [3]; [8]) is reported as 111 ± 27 nM.
For Eicosenoic acid [C20:1], the Kd (AeOBP22 [3]; [6]) was 102 ± 16 nM and the Ki (AeOBP22 [3]; [8]) was 102 ± 16 nM.
